Measured values published in PubChem BioAssay AID256 (DTP/NCI, 2004).
Where “and” joins values, the source holds several entries; their conditions need not be identical. Equal entries are not always repeated. Toxic doses and inconclusive results are not listed. The calls were made as follows: active = survival T/C of 150% or more; inactive = T/C below 125% in these data.

Tested on: CD2F1 mice, L1210 leukemia ip, survival T/C
Assay: NCI In Vivo Anticancer Drug Screen. Data for tumor model L1210 Leukemia (intraperitoneal) in CD2F1 (CDF1) mice
Conditions: higher = longer survival
Summary of the method: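 Compound-dosed mice with transplantable tumor versus matched vehicle controls; endpoint ratio T/C reported.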

[1] = endpoint: mean survival time, dose: 12.5 mg/kg/injection, schedule: Q04DX002 (ip), vehicle: saline with Tween-80
[2] = endpoint: mean survival time, dose: 25.0 mg/kg/injection, schedule: Q04DX002 (ip), vehicle: saline with Tween-80
[3] = endpoint: mean survival time, dose: 100.0 mg/kg/injection, schedule: Q01DX009 (ip), vehicle: saline with Tween-80
[4] = endpoint: mean survival time, dose: 100.0 mg/kg/injection, schedule: Q04DX003 (ip), vehicle: saline with Tween-80
[5] = endpoint: mean survival time, dose: 200.0 mg/kg/injection, schedule: Q01DX009 (ip), vehicle: saline with Tween-80
[6] = endpoint: mean survival time, dose: 200.0 mg/kg/injection, schedule: Q04DX003 (ip), vehicle: saline with Tween-80
[7] = endpoint: mean survival time, dose: 400.0 mg/kg/injection, schedule: Q01DX009 (ip), vehicle: saline with Tween-80
[8] = endpoint: mean survival time, dose: 400.0 mg/kg/injection, schedule: Q04DX003 (ip), vehicle: saline with Tween-80
[9] = endpoint: mean survival time, dose: 100.0 mg/kg/injection, schedule: Q01DX001 (ip), vehicle: other
[10] = endpoint: mean survival time, dose: 200.0 mg/kg/injection, schedule: Q01DX001 (ip), vehicle: other
[11] = endpoint: mean survival time, dose: 400.0 mg/kg/injection, schedule: Q01DX001 (ip), vehicle: other
[12] = endpoint: mean survival time, dose: 100.0 mg/kg/injection, schedule: Q01DX001 (ip), vehicle: saline with Tween-80
[13] = endpoint: mean survival time, dose: 200.0 mg/kg/injection, schedule: Q01DX001 (ip), vehicle: saline with Tween-80
[14] = endpoint: mean survival time, dose: 400.0 mg/kg/injection, schedule: Q01DX001 (ip), vehicle: saline with Tween-80
[15] = endpoint: mean survival time, dose: 12.5 mg/kg/injection, schedule: Q01DX009 (ip), vehicle: saline with Tween-80
[16] = endpoint: mean survival time, dose: 25.0 mg/kg/injection, schedule: Q01DX009 (ip), vehicle: saline with Tween-80
[17] = endpoint: mean survival time, dose: 50.0 mg/kg/injection, schedule: Q01DX009 (ip), vehicle: saline with Tween-80
[18] = endpoint: mean survival time, dose: 100.0 mg/kg/injection, schedule: Q01DX001 (ip), vehicle: saline
[19] = endpoint: mean survival time, dose: 50.0 mg/kg/injection, schedule: Q04DX002 (ip), vehicle: saline with Tween-80
[20] = endpoint: mean survival time, dose: 100.0 mg/kg/injection, schedule: Q04DX002 (ip), vehicle: saline with Tween-80
[21] = endpoint: mean survival time, dose: 200.0 mg/kg/injection, schedule: Q04DX002 (ip), vehicle: saline with Tween-80
[22] = endpoint: mean survival time, dose: 400.0 mg/kg/injection, schedule: Q04DX002 (ip), vehicle: saline with Tween-80
[23] = endpoint: mean survival time, dose: 100.0 mg/kg/injection, schedule: Q01DX001 (ip), vehicle: Klucel (hydroxypropylcellulose) (HPC)
[24] = endpoint: mean survival time, dose: 200.0 mg/kg/injection, schedule: Q01DX001 (ip), vehicle: Klucel (hydroxypropylcellulose) (HPC)
[25] = endpoint: mean survival time, dose: 400.0 mg/kg/injection, schedule: Q01DX001 (ip), vehicle: Klucel (hydroxypropylcellulose) (HPC)

Measured: T/C

Nc1ncnc2c1nc(-c1ccccc1)n2C1OC(CO)C(O)C1O (stereo unspecified)
inactive: endpoint: median survival time, dose: 25.0 mg/kg/injection, schedule: Q01DX005 (ip), vehicle: distilled water + Tween-80 100 % of control | endpoint: median survival time, dose: 50.0 mg/kg/injection, schedule: Q01DX005 (ip), vehicle: distilled water + Tween-80 97 % of control | endpoint: median survival time, dose: 100.0 mg/kg/injection, schedule: Q01DX005 (ip), vehicle: distilled water + Tween-80 100 % of control | endpoint: median survival time, dose: 200.0 mg/kg/injection, schedule: Q01DX005 (ip), vehicle: distilled water + Tween-80 100 % of control

CCc1c(N=O)c(-c2ccccc2)n(O)[n+]1[O-]
inactive: endpoint: mean survival time, dose: 50.0 mg/kg/injection, schedule: Q01DX009 (ip), vehicle: Klucel (hydroxypropylcellulose) (HPC) 104 % of control | endpoint: mean survival time, dose: 100.0 mg/kg/injection, schedule: Q01DX009 (ip), vehicle: Klucel (hydroxypropylcellulose) (HPC) 101 % of control | endpoint: mean survival time, dose: 200.0 mg/kg/injection, schedule: Q01DX009 (ip), vehicle: Klucel (hydroxypropylcellulose) (HPC) 95 % of control

CNC(=O)OCCN(C)OC
inactive: endpoint: mean survival time, dose: 100.0 mg/kg/injection, schedule: Q04DX003 (ip), vehicle: saline 95 % of control | endpoint: mean survival time, dose: 200.0 mg/kg/injection, schedule: Q04DX003 (ip), vehicle: saline 98 % of control | endpoint: mean survival time, dose: 400.0 mg/kg/injection, schedule: Q04DX003 (ip), vehicle: saline 93 % of control

O=[N+]([O-])c1ccc(-c2ccccc2)c([As](=O)(O)O)c1
inactive: endpoint: mean survival time, dose: 6.25 mg/kg/injection, schedule: Q04DX002 (ip), vehicle: saline with Tween-80 124 % of control | [1] 116 % of control | [2] 104 % of control

CC(C)(CO)CBr
inactive: [3] 95 % of control | [4] 95 % of control | [5] 102 % of control | [6] 97 % of control | [7] 98 % of control | [8] 95 % of control

COc1cc2c(cc1OC)C(Cc1ccc(NC(=O)c3ccc(C(=O)Nc4ccc(CC5c6cc(OC)c(OC)cc6CCN5C)cc4)cc3)cc1)N(C)CC2 (stereo unspecified)
inactive: [9] 107 % of control | [10] 101 % of control | [11] 103 % of control

O=C1c2ccccc2-c2cc(Br)c(NC(Cl)Cl)cc21
inactive: [12] 104 % of control | [13] 106 % of control | [14] 103 % of control

C=Cc1c(C)c2cc3[nH]c(cc4nc(cc5nc(cc1[nH]2)C(C)=C5CCC(=O)O)C(CCC(=O)O)=C4C)c(C)c3C=C
inactive: [15] 88 % of control | [16] 88 % of control | [17] 88 % of control

CCOC(=O)C(C(=S)NC)=S(C)C
inactive: [9] 92 % of control | [10] 88 % of control | [11] 105 % of control

COc1ccc(NC(=O)Oc2ccc(Cl)c(C)c2)cc1
inactive: [3] 89 % of control | [7] 92 % of control

CN(N=O)C(=O)NCC1OC(OC2(CNC(=O)N(C)N=O)OC(CNC(=O)N(C)N=O)C(O)C2O)C(O)C(O)C1O (stereo unspecified)
inactive: endpoint: mean survival time, dose: 12.5 mg/kg/injection, schedule: Q01DX009 (ip), vehicle: water 102 % of control | endpoint: mean survival time, dose: 25.0 mg/kg/injection, schedule: Q01DX009 (ip), vehicle: water 104 % of control | endpoint: mean survival time, dose: 50.0 mg/kg/injection, schedule: Q01DX009 (ip), vehicle: water 110 % of control | endpoint: mean survival time, dose: 100.0 mg/kg/injection, schedule: Q01DX009 (ip), vehicle: water 117 % of control

COC(=O)c1cc(-c2ccccc2)nc2c1ccc1ccccc12
inactive: [18] 94 % of control

O=C(Nc1ccc([N+](=O)[O-])cc1)OCc1ccccc1
inactive: [19] 104 % of control | [20] 100 % of control | [21] 108 % of control

C/C(=C/C#N)c1ccccc1
inactive: [17] 101 % of control | [3] 97 % of control | [4] 100 % of control | [6] 100 % of control

Nc1nc2c(ncn2-c2ccc(-c3ccccc3)cc2)c(=O)[nH]1
inactive: [12] 93 % of control and 108 % of control | [20] 97 % of control | [13] 87 % of control and 89 % of control | [21] 93 % of control | [14] 93 % of control | [22] 89 % of control

ClCC(Cl)C(Cl)CCl (stereo unspecified)
inactive: endpoint: mean survival time, dose: 50.0 mg/kg/injection, schedule: Q01DX001 (ip), vehicle: saline with Tween-80 95 % of control | [12] 109 % of control | [13] 86 % of control

COCCNC(=O)Nc1cccc2c1CCCC2
inactive: [4] 106 % of control | [6] 97 % of control | [8] 91 % of control

C[Si](C)(C)/C(=N/Nc1ccc([N+](=O)[O-])cc1[N+](=O)[O-])c1ccccc1
inactive: [23] 97 % of control | [24] 95 % of control | [25] 92 % of control

Nc1nc(OCc2ccccc2)ncc1C(=O)NCC(=O)O
inactive: [15] 105 % of control | [16] 100 % of control | [17] 104 % of control

CC(=NCc1ccccc1)C(C)(O)c1ccccc1 (stereo unspecified)
inactive: [18] 107 % of control | endpoint: mean survival time, dose: 200.0 mg/kg/injection, schedule: Q01DX001 (ip), vehicle: saline 101 % of control | endpoint: mean survival time, dose: 400.0 mg/kg/injection, schedule: Q01DX001 (ip), vehicle: saline 96 % of control

COC(=O)c1c(CC#N)ncn1C1CC(OC(=O)c2ccc(C)cc2)C(COC(=O)c2ccc(C)cc2)O1 (stereo unspecified)
inactive: endpoint: median survival time, dose: 9.88 mg/kg/injection, schedule: Q01DX005 (ip), vehicle: water 101 % of control | endpoint: median survival time, dose: 19.75 mg/kg/injection, schedule: Q01DX005 (ip), vehicle: water 96 % of control | endpoint: median survival time, dose: 39.5 mg/kg/injection, schedule: Q01DX005 (ip), vehicle: water 96 % of control | endpoint: median survival time, dose: 79.0 mg/kg/injection, schedule: Q01DX005 (ip), vehicle: water 97 % of control | endpoint: median survival time, dose: 158.0 mg/kg/injection, schedule: Q01DX005 (ip), vehicle: water 100 % of control

CC(=Nc1ccccc1)C1=C(O)C(Cc2ccccc2)NC1=O (stereo unspecified)
inactive: [15] 98 % of control and 103 % of control | [1] 100 % of control | [16] 102 % of control and 111 % of control | [2] 103 % of control | [17] 118 % of control and 108 % of control | [19] 103 % of control | [3] 110 % of control

COC(=O)C(C)C1CCC2C3=CC=C4CC(OC(C)=O)CCC4(C)C3=CCC21C (stereo unspecified)
inactive: [23] 98 % of control | [24] 92 % of control | [25] 92 % of control

CN=NC(C)C
inactive: [5] 113 % of control

O=C(N/N=C/c1cccc(Cl)c1)c1ccccc1
inactive: [3] 94 % of control | endpoint: mean survival time, dose: 100.0 mg/kg/injection, schedule: Q04DX003 (ip), vehicle: Klucel (hydroxypropylcellulose) (HPC) 96 % of control | [5] 94 % of control | endpoint: mean survival time, dose: 200.0 mg/kg/injection, schedule: Q04DX003 (ip), vehicle: Klucel (hydroxypropylcellulose) (HPC) 94 % of control | [7] 96 % of control | endpoint: mean survival time, dose: 400.0 mg/kg/injection, schedule: Q04DX003 (ip), vehicle: Klucel (hydroxypropylcellulose) (HPC) 94 % of control

O=C(Nc1ccccc1[N+](=O)[O-])OC/C=C/c1ccccc1
inactive: [20] 91 % of control | [21] 91 % of control | [22] 87 % of control
